In one assay the test system is Plasmodium falciparum. Briefly: Antimalarial activity against chloroquine-sensitive Plasmodium falciparum 3D7 infected O positive human red blood cells assessed as dead rings and schizonts at 0.4 ug/ml after 40 hr by Giemsa staining. It counts as functional.
Take `CCN(CC)CCCC(C)Nc1ccnc2cc(Cl)ccc12` (stereo not drawn) [CHLOROQUINE]: the Activity came out at 68.5%.

The next assay deals with Plasmodium falciparum. Briefly: Antimalarial activity against chloroquine-sensitive Plasmodium falciparum 3D7 infected O positive human red blood cells assessed as dead rings and schizonts at 50 ug/ml after 40 hr by Giemsa staining. The format is functional.
In the case of `Oc1ccc(NCc2ccc(Nc3ccnc4cc(Cl)ccc34)cc2O)cc1`, the Activity is recorded as 28.5%. Still for that read-out and setting: the value for `Oc1cc(Nc2ccnc3cc(Cl)ccc23)ccc1CNc1ccc(Br)cc1F` was 6.5%; that for `Oc1cc(Nc2ccnc3cc(Cl)ccc23)ccc1CNC1CCNCC1` was 33%.

For the compound `OCCNCc1ccc(Nc2ccnc3cc(Cl)ccc23)cc1O`, the Activity is 36.5%. On the same count and under the same terms, as for `NC(=O)NCc1ccc(Nc2ccnc3cc(Cl)ccc23)cc1O`, the figure is 24%; as for `Oc1cc(Nc2ccnc3cc(Cl)ccc23)ccc1CNc1ccc(F)cc1`, 25.5%; as for `O=C(O)c1ccc(NCc2ccc(Nc3ccnc4cc(Cl)ccc34)cc2O)cc1`, 34%.
